Measured values as given in US20050196744A1 (priority 2004, published 2005).
Changes are numbered by the printed parent chain. Names and notes keep the numbering of the source. Values joined by “and” are separate entries in the source; they are usually repeats but may differ in a detail not shown here. Equal entries are not always repeated. Marks after values point to notes of the source that are not given here.

T1: D79E DAT (Rattus norvegicus, UniProt P23977, D79E)
T1 construct: expressed in transfected cells; host or cells: CHO-K1, stably transfected; intact attached monolayers
T1 sequence (P23977 1-619 D79E): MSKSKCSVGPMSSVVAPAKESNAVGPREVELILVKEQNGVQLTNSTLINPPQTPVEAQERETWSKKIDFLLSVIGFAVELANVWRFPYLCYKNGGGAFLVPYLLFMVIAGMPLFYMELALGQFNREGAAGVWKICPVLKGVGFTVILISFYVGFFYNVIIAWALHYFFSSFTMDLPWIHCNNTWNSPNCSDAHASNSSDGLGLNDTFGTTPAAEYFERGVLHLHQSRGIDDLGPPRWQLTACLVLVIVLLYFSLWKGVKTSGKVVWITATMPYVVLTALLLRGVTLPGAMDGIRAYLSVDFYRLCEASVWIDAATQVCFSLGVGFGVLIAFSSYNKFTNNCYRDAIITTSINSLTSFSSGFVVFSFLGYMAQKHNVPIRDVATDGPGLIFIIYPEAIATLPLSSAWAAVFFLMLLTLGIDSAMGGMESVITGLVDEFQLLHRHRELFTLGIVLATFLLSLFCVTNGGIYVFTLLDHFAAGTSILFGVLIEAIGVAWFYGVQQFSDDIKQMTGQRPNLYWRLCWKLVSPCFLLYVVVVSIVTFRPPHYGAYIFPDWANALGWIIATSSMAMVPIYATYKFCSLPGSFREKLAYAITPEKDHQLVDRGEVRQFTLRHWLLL

B1: WT DAT (Rattus norvegicus) (protein)
chain: T1 sequence (P23977 1-619 D79E) with E79D
B2: D79E DAT (Rattus norvegicus; D79E) (protein)
chain: T1 sequence (P23977 1-619 D79E)

Columns and labels:
D79E DAT [1] = target: T1, D79E DAT; assay: [3H]-WIN 35,428 binding / displacement at CHO cells stably expressing D79E DAT; settings: for loss of binding affinity ([3H]-WIN 35,428 displacement) caused by the D79E mutation (D79E vs WT DAT): CHO cells, comparison of Ki values
Method: (§1) Ligand binding assays. […] Nonradioactive competitor concentrations were as indicated above for uptake inhibition. […] Membranes were aspirated with a Brandel harvester onto GF/B glass-fiber filter paper, washed with 3×5 ml cold binding buffer, and the filters measured for radioactivity via scintillation counting. For all binding assays, data were analyzed with the GraphPad Prism 2.0 software to obtain Kd, Ki and Bmax values.

D79E DAT [2] = target: T1, D79E DAT; assay: [3H]-dopamine uptake and uptake inhibition, CHO cells stably expressing D79E DAT; assay type: cell-based
WT DAT [3] = target: T2, WT DAT (Rattus norvegicus, UniProt P23977); assay: [3H]-dopamine uptake and uptake inhibition, CHO cells stably expressing WT DAT; assay type: cell-based
T2 construct: expressed in transfected cells; host or cells: CHO-K1, stably transfected (G-418 selection); intact monolayers in A1 and A3, membranes in A5
T2 sequence (P23977 whole entry): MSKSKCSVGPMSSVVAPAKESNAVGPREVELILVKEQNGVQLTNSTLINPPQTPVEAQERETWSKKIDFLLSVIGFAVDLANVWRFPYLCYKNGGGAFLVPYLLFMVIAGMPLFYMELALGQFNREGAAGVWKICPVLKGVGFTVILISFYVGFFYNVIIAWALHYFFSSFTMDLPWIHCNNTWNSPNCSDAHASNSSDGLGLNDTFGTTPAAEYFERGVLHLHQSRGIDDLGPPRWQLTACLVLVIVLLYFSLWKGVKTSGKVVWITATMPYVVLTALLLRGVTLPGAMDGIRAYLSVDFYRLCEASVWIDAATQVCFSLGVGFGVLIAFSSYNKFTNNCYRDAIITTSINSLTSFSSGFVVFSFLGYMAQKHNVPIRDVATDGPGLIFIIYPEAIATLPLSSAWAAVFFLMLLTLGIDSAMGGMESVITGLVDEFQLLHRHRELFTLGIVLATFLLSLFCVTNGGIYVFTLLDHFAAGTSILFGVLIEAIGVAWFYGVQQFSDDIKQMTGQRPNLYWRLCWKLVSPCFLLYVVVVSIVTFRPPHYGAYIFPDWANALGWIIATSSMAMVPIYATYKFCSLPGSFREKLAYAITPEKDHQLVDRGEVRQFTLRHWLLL

WT DAT [4] = target: T2, WT DAT; assay: [3H]-WIN 35,428 binding / displacement at intact CHO cells stably expressing WT DAT
Method: as §1

intact naïve CHO cells = assay: [3H]-WIN 35,428 low affinity site of intact naïve CHO cells; assay type: binding; settings: intact naïve (untransfected) CHO cells
Method: To further address this steric issue, dihydroxy-benzylamine (DHBA) was employed as a potential DAT substrate. […] Ligand binding assays were conducted under conditions that matched those for assaying uptake inhibition.

[5] = substrate: NCCc1ccc(O)c(O)c1; assay: cells, lysate or membranes; settings: 22° C., KRH buffer, mean ± standard error, pH 7.3
[6] = DAT substrates, intact CHO cells, WT DAT, 1 nM [3H]-WIN 35,428, 15 min, 22° C., read-out: Ki, [3H]-WIN inhibition (binding affinity)
[7] = DAT substrates, intact CHO cells, D79E DAT, 1 nM [3H]-WIN 35,428, 15 min, 22° C., read-out: Ki, [3H]-WIN inhibition (binding affinity)
[8] = CHO cells, comparison of Ki values
[9] = DAT substrates, CHO cells, D79E DAT, 22° C., KRH buffer, mean ± standard error, read-out: Ki, inhibition of [3H]-DA uptake
[10] = DAT substrates, CHO cells, WT DAT, 22° C., KRH buffer, mean ± standard error, read-out: Ki, inhibition of [3H]-DA uptake

Row | Molecule | loss of binding affinity ([3H]-WIN 35,428 displacement) caused by the D79E mutation (D79E vs WT DAT) (D79E DAT [1]) | Ki (WT DAT [4]; [6]) | Ki (D79E DAT [1]; [7]) [µM] | loss of dopamine uptake inhibition potency caused by the D79E mutation (D79E vs WT DAT) (D79E DAT [2]; [8]) | Ki (D79E DAT [2]; [9]) [nM] | Ki (WT DAT [3]; [10]) [µM] | Ki (D79E DAT [1]) [µM] | also measured
1 | NCCc1ccc(O)c(O)c1 [Dopamine, dopamine] | almost identical |  |  |  |  |  |  | Vmax/Bmax (dopamine turnover rate) (D79E DAT [2]; D79E DAT CHO cells, Bmax from [3H]-WIN 35,428 saturation binding): 7.9 min⁻¹; Vmax of dopamine uptake (D79E DAT [2]; D79E DAT CHO cells, dopamine at 0.1 Ci/mmol, 5 min, 22° C.): 48 ± 4^a pmol/mg/min; decrease in DAT dopamine turnover rate rendered by the D79E mutation (D79E DAT [2]; corrected for fewer transporters at the cell surface): approximately 4 fold; Vmax/Bmax (dopamine turnover rate) (WT DAT [3]; WT DAT CHO cells, Bmax from [3H]-WIN 35,428 saturation binding): 34.1 min⁻¹; Vmax of dopamine uptake (WT DAT [3]; WT DAT CHO cells, dopamine at 0.1 Ci/mmol, 5 min, 22° C.): 348 ± 22 pmol/mg/min; WT DAT turnover rate higher than that for D79E DAT CHO cells (WT DAT [3]; [3H]-dopamine uptake kinetics, CHO cells): 7 fold
2 | NCCc1ccc(O)cc1 [p-Tyramine] |  | 800 nM | 4.3 ± 0.5 | 2 fold | 3300 ± 400 | 1.7 ± 0.1 |  | 
3 | NCCc1cccc(O)c1 [m-Tyramine] |  | 1000 nM | 6.6 ± 1.2 | unchanged | 1200 ± 300 | 1.4 ± 0.3 |  | 
4 | OC1(c2ccc(Cl)cc2)c2ccccc2C2=NCCN21 (stereo not shown) [Mazindol, mazindol] |  |  |  | no effect |  |  | 0.041 ± 0.003 | Ki (WT DAT [4]): 13 ± 1 nM; Ki (D79E DAT [2]): 47 ± 4 nM; Ki (WT DAT [3]): 0.031 ± 0.003 µM
5 | COC(=O)C(c1ccccc1)C1CCCCN1 (stereo not shown) [Methylphenidate, methylphenidate] |  |  |  | no effect |  |  | 0.167 ± 0.002 | Ki (D79E DAT [2]): 161 ± 9 nM
6 | COC(=O)[C@H]1[C@@H](c2ccc(F)cc2)C[C@@H]2CC[C@H]1N2C [WIN 35,428] |  |  |  | no effect |  |  |  | specific binding of [3H]-WIN 35,428 (D79E DAT [1]; D79E DAT, suspended cells or cell membrane preparation in KRH uptake buffer): undetectable; Kd (intact naïve CHO cells): > 1000 nM
7 | NC[C@H](O)c1ccc(O)c(O)c1 [Norepinephrine] | 2 fold | 2300 nM |  | equally effective | 5200 ± 300 | 5.4 | 5.5 ± 0.7 | 
8 | dihydroxybenzylamine [DHBA] | identical | 800000 nM and 801000 nM | 791 ± 27 |  | 782000 ± 22000 | 5760 ± 540 |  | more potent as inhibitor of [3H]-WIN 35,428 binding than as inhibitor of [3H]-dopamine uptake at WT DAT (WT DAT [4]; intact CHO cells stably expressing WT DAT): 7 fold; potency of inhibition of [3H]-WIN 35,428 binding compared with potency for inhibition of [3H]-dopamine uptake at D79E DAT (D79E DAT [1]; intact CHO cells, D79E DAT): agrees well; Ki at D79E DAT relative to the Ki value for dopamine binding at WT DAT (higher) (D79E DAT [2]): 377 fold; Ki for uptake inhibition at D79E DAT relative to the dopamine Km value at WT DAT (higher) (D79E DAT [2]): 460 fold; potency in inhibiting [3H]-dopamine uptake, higher at D79E DAT compared to WT DAT (D79E DAT [2]; [8]): 7 fold
9 | B1 |  |  |  |  |  |  |  | Km ([5]; other: CHO cells stably expressing WT DAT): 1.7 ± 0.3 µM
10 | B2 |  |  |  |  |  |  |  | Km ([5]; other: CHO cells stably expressing D79E DAT): 2.3 ± 0.3^ μM
